Patent publication US6737383B1, “Herbicidal oxadiazolidines” (priority 1999, dated 2004)

How the values were obtained:
surinam grass = assay: Test B pre/postemergence surinam grass; type: in vivo, Brachiaria decumbens
Method in brief: (§1)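 Response is a visual 0-to-10 score relative to untreated plants, where 0 means no effect and 10 means complete control, taken twelve to sixteen days after application. Treatments went onto soil at planting and onto foliage of 1- to 4-leaf plants, using a surfactant-containing non-phytotoxic solvent.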

cocklebur = assay: Test B pre/postemergence cocklebur; type: in vivo, Xanthium strumarium
Method in brief: as §1

corn = assay: Test B pre/postemergence corn; type: in vivo, Zea mays
Method in brief: as §1

crabgrass = assay: Test B pre/postemergence crabgrass; type: in vivo, Digitaria sanguinalis
Method in brief: as §1

giant foxtail = assay: Test B pre/postemergence giant foxtail; type: in vivo, Setaria faberii
Method in brief: as §1

morningglory = assay: Test B pre/postemergence morningglory; type: in vivo, Ipomoea hederacea
Method in brief: as §1

pigweed = assay: Test B pre/postemergence pigweed; type: in vivo, Amaranthus retroflexus
Method in brief: as §1

rape = assay: Test B pre/postemergence rape; type: in vivo, Brassica napus
Method in brief: as §1

soybean = assay: Test B pre/postemergence soybean; type: in vivo, Glycine max
Method in brief: as §1

sugar beet = assay: Test B pre/postemergence sugar beet; type: in vivo, Beta vulgaris
Method in brief: as §1

wild oat = assay: Test B pre/postemergence wild oat; type: in vivo, Avena fatua
Method in brief: as §1

purple nutsedge = assay: Test B pre/postemergence purple nutsedge; type: in vivo, Cyperus rotundus
Method in brief: as §1

rice = assay: Test B flood test rice; type: in vivo, Oryza sativa
Method in brief: (§2)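 Plants were grown to the 2-leaf stage before treatment with test chemical, then held in a greenhouse for twelve to sixteen days. Injury was visually rated against untreated controls on a 0–10 scale, where 0 is no effect and 10 is complete control.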

smallflower flatsedge = assay: Test B flood test smallflower flatsedge; type: in vivo, Cyperus difformis
Method in brief: as §2

duck salad = assay: Test B flood test duck salad; type: in vivo, Heteranthera limosa
Method in brief: as §2

bamyardgrass = assay: Test B flood test barnyardgrass; type: in vivo, Echinochloa crus-galli
Method in brief: as §2

[1] = Postemergence, Rate 125 g/ha, scale of 0 to 10 where 0 is no effect and 10 is complete control
[2] = Preemergence, Rate 62 g/ha, scale 0 to 10 (0 no effect, 10 complete control)
[3] = Preemergence, Rate 125 g/ha, 0 is no effect, 10 is complete control
[4] = Preemergence, Rate 250 g/ha, scale 0 to 10, 0 is no effect, 10 is complete control
[5] = Preemergence, Rate 500 g/ha, scale 0 to 10 (0 no effect, 10 complete control)
[6] = Rate 62 g/ha, Postemergence, scale of 0 to 10 where 0 is no effect and 10 is complete control
[7] = Rate 250 g/ha, Postemergence, scale 0 to 10, 0 is no effect, 10 is complete control
[8] = Rate 500 g/ha, Postemergence, scale 0 to 10
[9] = Postemergence (flood test species), Rate 125 g/ha, scale of 0 to 10 where 0 is no effect and 10 is complete control
[10] = Rate 62 g/ha, Postemergence section, flood test species, scale of 0 to 10 where 0 is no effect and 10 is complete control
[11] = Rate 250 g/ha, Postemergence (flood test), scale 0 to 10, 0 is no effect, 10 is complete control
[12] = Rate 500 g/ha, listed under Postemergence (flood test species), scale 0 to 10

CC(C)N(C(=O)n1oc(=O)n(Cc2ccccc2Cl)c1=O)C1=CCCCC1 [Compound 145]
7: Plant response rating, Barnyardgrass (bamyardgrass; [11])
6: Morningglory plant response rating (morningglory; [6]) | Barnyardgrass plant response rating (bamyardgrass; [9])
9: Barnyardgrass plant response rating (bamyardgrass; Rate 500 g/ha, listed under Postemergence (flood test species), scale 0 to 10, 0 no effect, 10 complete control)
10: Plant response rating, Morningglory (morningglory; [7]) | Morningglory plant response rating (morningglory; [8])
8: Crabgrass plant response rating (crabgrass; [5]) | Plant response rating, Crabgrass (crabgrass; [7]) | Crabgrass plant response rating (crabgrass; [8]) | Giant foxtail plant response rating (giant foxtail; [5]) | Morningglory plant response rating (morningglory; [1]) | S. Flatsedge plant response rating (smallflower flatsedge; [12])
2: B. signalgrass plant response rating (surinam grass; Rate 500 g/ha, Postemergence, scale of 0 to 10 where 0 is no effect and 10 is complete control) | Crabgrass plant response rating (crabgrass; [6]) | Plant response rating, Giant foxtail (giant foxtail; [7]) | Redroot pigweed plant response rating (pigweed; [4]) | Redroot pigweed plant response rating (pigweed; [8]) | Rape plant response rating (rape; [1]) | Wild oats plant response rating (wild oat; [8]) | Ducksalad plant response rating (duck salad; [12])
0: B. signalgrass plant response rating (surinam grass; [1]) | B. signalgrass plant response rating (surinam grass; [2]) | B. signalgrass plant response rating (0 to 10 scale) (surinam grass; [3]) | B. signalgrass plant response rating (surinam grass; [6]) | Plant response rating, B. signalgrass (surinam grass; [7]) | Cocklebur plant response rating (cocklebur; [1]) | Cocklebur plant response rating (cocklebur; [2]) | Cocklebur plant response rating (0 to 10 scale) (cocklebur; [3]) | Cocklebur plant response rating (cocklebur; [4]) | Cocklebur plant response rating (cocklebur; [5]) | Cocklebur plant response rating (cocklebur; [6]) | Plant response rating, Cocklebur (cocklebur; [7]) | Cocklebur plant response rating (cocklebur; [8]) | Corn plant response rating (corn; [1]) | Corn plant response rating (corn; [2]) | Corn plant response rating (0 to 10 scale) (corn; [3]) | Corn plant response rating (corn; [4]) | Corn plant response rating (corn; [5]) | Corn plant response rating (corn; [6]) | Plant response rating, Corn (corn; [7]) | Corn plant response rating (corn; [8]) | Crabgrass plant response rating (crabgrass; [2]) | Giant foxtail plant response rating (giant foxtail; [1]) | Giant foxtail plant response rating (giant foxtail; [2]) | Giant foxtail plant response rating (giant foxtail; [6]) | Morningglory plant response rating (morningglory; [2]) | Morningglory plant response rating (0 to 10 scale) (morningglory; [3]) | Morningglory plant response rating (morningglory; [4]) | Redroot pigweed plant response rating (pigweed; [1]) | Redroot pigweed plant response rating (pigweed; [2]) | Redroot pigweed plant response rating (0 to 10 scale) (pigweed; [3]) | Redroot pigweed plant response rating (pigweed; [6]) | Plant response rating, Redroot pigweed (pigweed; [7]) | Rape plant response rating (rape; [2]) | Rape plant response rating (0 to 10 scale) (rape; [3]) | Rape plant response rating (rape; [4]) | Rape plant response rating (rape; [5]) | Rape plant response rating (rape; [6]) | Soybean plant response rating (soybean; [2]) | Soybean plant response rating (0 to 10 scale) (soybean; [3]) | Soybean plant response rating (soybean; [4]) | Soybean plant response rating (soybean; [5]) | Sugarbeets plant response rating (sugar beet; [1]) | Sugarbeets plant response rating (sugar beet; [2]) | Sugarbeets plant response rating (0 to 10 scale) (sugar beet; [3]) | Sugarbeets plant response rating (sugar beet; [4]) | Sugarbeets plant response rating (sugar beet; [6]) | Plant response rating, Sugarbeets (sugar beet; [7]) | Sugarbeets plant response rating (sugar beet; [8]) | Wild oats plant response rating (wild oat; [1]) | Wild oats plant response rating (wild oat; [2]) | Wild oats plant response rating (0 to 10 scale) (wild oat; [3]) | Wild oats plant response rating (wild oat; [4]) | Wild oats plant response rating (wild oat; [6]) | Plant response rating, Wild oats (wild oat; [7]) | Nutsedge plant response rating (purple nutsedge; [1]) | Nutsedge plant response rating (purple nutsedge; [2]) | Nutsedge plant response rating (0 to 10 scale) (purple nutsedge; [3]) | Nutsedge plant response rating (purple nutsedge; [4]) | Nutsedge plant response rating (purple nutsedge; [5]) | Nutsedge plant response rating (purple nutsedge; [6]) | Plant response rating, Nutsedge (purple nutsedge; [7]) | Nutsedge plant response rating (purple nutsedge; [8]) | Rice plant response rating (rice; [9]) | Rice plant response rating (rice; [10]) | Plant response rating, Rice (rice; [11]) | Rice plant response rating (rice; [12]) | S. Flatsedge plant response rating (smallflower flatsedge; [9]) | S. Flatsedge plant response rating (smallflower flatsedge; [10]) | Ducksalad plant response rating (duck salad; [9]) | Ducksalad plant response rating (duck salad; [10]) | Plant response rating, Ducksalad (duck salad; [11]) | Barnyardgrass plant response rating (bamyardgrass; [10])
4: Crabgrass plant response rating (0 to 10 scale) (crabgrass; [3]) | Crabgrass plant response rating (crabgrass; [4]) | Giant foxtail plant response rating (giant foxtail; [8]) | Redroot pigweed plant response rating (pigweed; [5]) | Plant response rating, Soybean (soybean; [7])
3: B. signalgrass plant response rating (surinam grass; [4]) | Crabgrass plant response rating (crabgrass; [1]) | Giant foxtail plant response rating (0 to 10 scale) (giant foxtail; [3]) | Plant response rating, Rape (rape; [7]) | Rape plant response rating (rape; [8]) | Soybean plant response rating (soybean; [1]) | Soybean plant response rating (soybean; [6]) | Sugarbeets plant response rating (sugar beet; [5]) | Wild oats plant response rating (wild oat; [5])
5: B. signalgrass plant response rating (surinam grass; [5]) | Giant foxtail plant response rating (giant foxtail; [4]) | Soybean plant response rating (soybean; [8]) | Plant response rating, S. Flatsedge (smallflower flatsedge; [11])
1: Morningglory plant response rating (morningglory; [5])
